In article PMC12052742, “Engineering a newly identified alcohol dehydrogenase from Sphingobium Sp. for efficient utilization of nicotinamide cofactors biomimetics” (Bioresources and Bioprocessing, 2025):

Columns and labels:
Format in all cases: biochemical, Sphingobium sp. SYK-6
SpADH2 [1] = assay: Cofactor spectrum of syringyl alcohol oxidation (HPLC specific activity), WT; conditions: 1a 5 mM, cofactor 7.5 mM, pH 7.5, 30℃; for decrease in activity compared with NAD^+ as cofactor: 0.05 µg SpADH2
Experimental: Fig. 2 Cofactor spectrum of syringyl alcohol oxidation catalyzed by SpADH2. The darkness of the background color for each cofactor stands for the activity of SpADH2 utilizing various cofactors. (a) NAD(P) ^+ and NMN^+ are shown in purple background. (b) tsNCBs are shown in cyan background. The evaluation of cofactor spectrum of SpADH2 was carried out under following conditions: 50 mM PBS buffer (pH 7.5) and 30℃, with 1a (5 mM) as substrate and different cofactors (7.5 mM) as cofactor. For NAD(P)^+ and NMN^+, 0.05 µg SpADH2 was added, and for tsNCBs, 5 µg SpADH2 was added. The results were analyzed by HPLC after 1 h reaction
(§1) Specific activity of SpADH2 in cofactor spectrum study was determined by HPLC analysis. PBS (pH 7.5) buffer was pre-heated at 30°C for 15 min. For NAD(P)^+ and NMN^+, 0.05 µg SpADH2 was added to PBS buffer (100 µL). For tsNCBs, 5 µg SpADH2 was added. A final concentration of 7.5 mM cofactor was added to the reaction mixture. Finally, a final concentration of 5 mM substrate was added to start the reaction. The reactions were conducted at 30°C.
(§2) One unit of enzyme activity is defined as the amount of enzyme required to form 1 µmol 1b per minute at pH 7.5 and 30°C. Same reaction without cofactor was used as a blank control.

[2] = tested on: SpADH2 variants (H43L, A290I, H43L/A290I); assay: Cofactor spectrum (HPLC specific activity), all variants together; conditions: 1a 5 mM, cofactor 7.5 mM, pH 7.5, 30℃
Experimental: (§3) Fig. 8 Cofactor spectrums of SpADH2 and its variants. The darkness of color for each cofactor stands for the activity. For each cofactor cube, top left: WT, top right: H43L, bottom left: A290I, bottom right: H43L/A290I. (a) Natural cofactors and NMN^+ are shown in purple. (b) tsNCBs are shown in cyan. The evaluation of cofactor spectrum was carried out under following conditions: 50 mM PBS buffer (pH 7.5) and 30℃, with 1a (5 mM) as substrate and different cofactors (7.5 mM) as cofactor. For NAD(P)^+ and NMN^+, 0.05 µg enzyme was added, and for tsNCBs, 5 µg enzyme was added. The results were analyzed by HPLC after 1 h reaction
as §1, §2

SpADH2 variant A290I = assay: Cofactor spectrum (HPLC specific activity), variant A290I; conditions: 1a 5 mM, cofactor 7.5 mM, pH 7.5, 30℃, 5 µg enzyme
Experimental: as §3, §1, §2

SpADH2 [3] = assay: Substrate spectrum (spectrophotometric specific activity, fluorescent probe); conditions: substrate 5 mM, 1 h; for substrate preference of SpADH2 (in words): cofactor p-BANA^+ 7.5 mM, 5 µg SpADH2, pH 7.5, 30℃
Experimental: Fig. 3 Substrate spectrum of SpADH2 utilizing (a) NAD^+ and (b) p-BANA^+. The darkness of the background color for each substrate stands for the activity of SpADH2 with NAD^+ (purple) or p-BANA^+ (cyan) as cofactor. The evaluation of substrate spectrum of SpADH2 was carried out under following conditions: 50 mM PBS buffer (pH 7.5) and 30℃, with 1a (5 mM) as substrate. For NAD^+(2 mM), 0.05 µg SpADH2 was added, and for p-BANA^+(7.5 mM), 5 µg SpADH2 was added. After 1 h, reactions were visualized by 0.2 mM florescent probes (2-[2-(1,4-dihydro-1-methyl-3-quinolinyl)ethenyl]-1,3,3-trimethyl-3H-indolium)
Specific activity of SpADH2 in substrate spectrum study was measured spectrophotometrically. PBS (pH 7.5) buffer was pre-heated at 30°C for 15 min. For NAD^+, 0.05 µg SpADH2 was added to the PBS buffer (100 µL), and a final concentration of 2 mM NAD^+ was added. For tsNCBs cofactor p-BANA^+, 5 µg SpADH2 and a final concentration of 7.5 mM p-BANA^+ was added. The mixture was carried out in a 96-well microplate, and a final concentration of 5 mM substrate was added to start the reaction. The microplate was incubated in 30°C for 1 h. Florescent probes (2-[2-(1,4-dihydro-1-methyl-3-quinolinyl)ethenyl]-1,3,3-trimethyl-3H-indolium) in a final concentration of 0.2 mM (100 µL) was added (Scheme S1), and the microplate was placed in a microplate reader immediately for measurement under 537 nm (Fomin et al. [2016]).
One unit of enzyme activity is defined as the amount of enzyme required to form 1 µmol of reduced florescent probes per minute at pH 7.5 and 30°C. Each reaction was repeated in triplet. Same reaction without substrate was used as a blank control. The molar absorbance coefficient (ε) was detected as […] with NADH as the reduced cofactor and 60,801 µM^− 1·cm^− 1 with p-BANAH as the reduced cofactor.

## NC(=O)c1ccc[n+](Cc2ccccc2Br)c1 [o-BBrNA^+]
SpADH2 [1]; 5 µg SpADH2, 1 h
  activity of SpADH2 with the tsNCB as cofactor: 1.3 U/g

## Cc1ccc(C[n+]2cccc(C(N)=O)c2)cc1 [p-BMNA^+, para-3-carbamoyl-1-(4-methylbenzyl)pyridin-1-ium]
SpADH2 [1]; 5 µg SpADH2, 1 h
  utilization of the tsNCB by SpADH2 (in words): No detectable activity

## NC(=O)c1ccc[n+](Cc2cccc(C(=O)O)c2)c1 [m-BANA^+, meta-3-carbamoyl-1-(3-carboxybenzyl)pyridin-1-ium]
[2]
  catalytic activity of all variants with the cofactor (in words): highest activity
SpADH2 variant A290I; 1 h
  catalytic activity with the tsNCB as cofactor: 118.11 U/g

## NC(=O)c1ccc[n+]([C@@H]2O[C@H](COP(=O)([O-])O)[C@@H](O)[C@H]2O)c1 [NMN^+, nicotinamide mononucleotide, reference compound]
[2]
  catalytic activity of all variants with the cofactor (in words): relatively lower catalytic activity
SpADH2 [1]
  decrease in activity compared with NAD^+ as cofactor: roughly 50%

## NC(=O)c1ccc[n+](Cc2cccc([N+](=O)[O-])c2)c1 [m-BNNA^+, meta-3-carbamoyl-1-(3-nitrobenzyl)pyridin-1-ium]
SpADH2 variant A290I
  utilization of the tsNCB (in words): capable of utilizing
SpADH2 [1]; 5 µg SpADH2, 1 h
  utilization of the tsNCB by SpADH2 (in words): not effectively utilized

## OCc1ccsc1 [3-thiophenemethanol]
SpADH2 [3]; cofactor NAD^+ 2 mM, 0.05 µg SpADH2, pH 7.5, 30℃
  specific activity of SpADH2 toward the substrate: 4.78 U/mg
SpADH2 [3]
  substrate preference of SpADH2 (in words): No significant preference

## COc1cc(CO)cc(OC)c1O [syringyl alcohol]
SpADH2 [3]
  substrate preference of SpADH2 (in words): optimal substrate

## NC(=O)c1ccc[n+]([C@@H]2O[C@H](COP(=O)(O)OP(=O)([O-])OC[C@H]3O[C@@H](n4cnc5c(N)ncnc54)[C@H](OP(=O)(O)O)[C@@H]3O)[C@@H](O)[C@H]2O)c1 [NADP^+, reference compound]
[2]
  catalytic activity of all variants with the cofactor (in words): relatively lower catalytic activity
SpADH2 [1]
  decrease in activity compared with NAD^+ as cofactor: roughly 50%
